In this assay the target is T1, human TRPV4 (Homo sapiens, UniProt Q9HBA0).
T1 construct: host or cells: tetracycline-inducible Flp-In T-REx 293 cells
The assay is described as follows: Hypotonicity-induced Ca2+ influx (Fluo-4, FDSS). The assay is classed as cell-based. The essentials: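 Flp-In T-REx 293 cells with tetracycline-induced human TRPV4, loaded with Fluo-4 for 60 min at 25 °C. Compound added 5 min before hypotonic mannitol/CaCl2 solution. Ca2+ signal recorded for 4.5 min on FDSS.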

Setting [1] is: Flp-In T-REx 293 cells expressing human TRPV4, examples listed under heading 'Human IC50<50 nM'.
[2] abbreviates: Flp-In T-REx 293 cells stably expressing human TRPV4, compounds listed by potency bin (<10 nM Tables 96-1/96-2, <3 nM Table 97).

The source of these data is US12673946B2, “Pyrimidin-4(3H)-one derivatives as TRPV4 antagonists” (RaQualia Pharma Inc., priority 2020, dated 2026).

T1 sequence (Q9HBA0 whole entry): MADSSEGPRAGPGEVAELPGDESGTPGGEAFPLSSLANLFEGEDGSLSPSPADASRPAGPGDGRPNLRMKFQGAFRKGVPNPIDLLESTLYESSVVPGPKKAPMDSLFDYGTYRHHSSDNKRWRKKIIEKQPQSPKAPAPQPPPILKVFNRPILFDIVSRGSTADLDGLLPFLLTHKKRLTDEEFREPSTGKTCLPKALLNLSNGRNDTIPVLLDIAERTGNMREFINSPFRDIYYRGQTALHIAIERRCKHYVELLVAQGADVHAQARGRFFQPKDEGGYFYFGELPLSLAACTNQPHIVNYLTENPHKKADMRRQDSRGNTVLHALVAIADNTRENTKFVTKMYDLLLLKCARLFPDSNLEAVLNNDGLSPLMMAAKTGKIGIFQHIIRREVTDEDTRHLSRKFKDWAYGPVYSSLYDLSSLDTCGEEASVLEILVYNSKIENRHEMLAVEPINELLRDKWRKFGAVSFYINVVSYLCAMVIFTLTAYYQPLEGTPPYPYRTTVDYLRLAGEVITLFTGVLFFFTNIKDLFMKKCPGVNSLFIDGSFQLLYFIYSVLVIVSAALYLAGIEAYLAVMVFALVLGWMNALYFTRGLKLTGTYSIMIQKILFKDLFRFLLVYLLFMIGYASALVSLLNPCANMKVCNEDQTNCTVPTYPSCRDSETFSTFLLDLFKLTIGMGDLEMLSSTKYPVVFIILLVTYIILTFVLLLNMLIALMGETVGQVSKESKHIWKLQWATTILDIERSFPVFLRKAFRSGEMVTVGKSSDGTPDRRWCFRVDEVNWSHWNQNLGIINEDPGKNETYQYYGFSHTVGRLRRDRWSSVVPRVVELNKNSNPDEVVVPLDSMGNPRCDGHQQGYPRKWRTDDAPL

By IC50 is commonly meant the midpoint of a concentration-inhibition curve. A high value points to lower potency. As for `O=C([C@H](O)c1cccc(-c2cccc(F)c2)c1)N1CCCc2nc(C3(c4cccs4)CC3)[nH]c(=O)c2C1` [53-5], the 50% inhibitory concentration (IC50) is, setting by setting: under setting [1], below 50 nM; under setting [2], below 10 nM.

Compound `O=C([C@H](O)c1cccc(-c2cccc(C3CC3)c2)c1)N1CCCc2nc(C3(c4cccs4)CC3)[nH]c(=O)c2C1` [53-6] gave an IC50 under setting [1] below 50 nM and an IC50 under setting [2] below 3 nM.

In the case of `CC(C)c1csc(C2(c3nc4c(c(=O)[nH]3)CN(C(=O)[C@H](O)c3cccc(-c5cccc(C(C)(C)C)c5)c3)CCC4)CC2)c1` [54-1], the IC50 reads like this: under setting [1], below 50 nM; under setting [2], below 3 nM.

For the compound `CC(C)c1csc(C2(c3nc4c(c(=O)[nH]3)CN(C(=O)[C@H](O)c3cccc(-c5cccc(OC(F)(F)F)c5)c3)CCC4)CC2)c1` [54-2], the IC50 runs as follows: under setting [1], below 50 nM; under setting [2], below 10 nM.

As to `CC(C)c1csc(C2(c3nc4c(c(=O)[nH]3)CN(C(=O)[C@H](O)c3cccc(-c5cccc(Cl)c5)c3)CCC4)CC2)c1` [54-3], the IC50 was below 50 nM under setting [1] and below 10 nM under setting [2].

For `CC(C)c1csc(C2(c3nc4c(c(=O)[nH]3)CN(C(=O)[C@H](O)c3cccc(-c5cccc(C(F)(F)F)c5)c3)CCC4)CC2)c1` [54-4], the half-maximal inhibitory concentration (IC50) was below 50 nM under setting [1] and below 10 nM under setting [2].

As to `CC(C)c1csc(C2(c3nc4c(c(=O)[nH]3)CN(C(=O)[C@H](O)c3cccc(-c5cccc(F)c5)c3)CCC4)CC2)c1` [54-5], the IC50 runs as follows: under setting [1], below 50 nM; under setting [2], below 3 nM.

Turning to `CC(C)c1csc(C2(c3nc4c(c(=O)[nH]3)CN(C(=O)[C@H](O)c3cccc(-c5ccnc(C(F)(F)F)c5)c3)CCC4)CC2)c1` [54-6], the IC50 reads like this: under setting [1], below 50 nM; under setting [2], below 3 nM.

In the case of `CC(C)(C)c1cccc(-c2cccc([C@@H](O)C(=O)N3CCCc4nc(C5(c6cc(C7CCCCC7)cs6)CC5)[nH]c(=O)c4C3)c2)c1` [54-7], the half-maximal inhibitory concentration (IC50) by setting is: under setting [1], below 50 nM; under setting [2], below 10 nM.

`O=C([C@H](O)c1cccc(-c2csc3ccccc23)c1)N1CCCc2nc(C3(c4cc(C5CCCCC5)cs4)CC3)[nH]c(=O)c2C1` [54-8] registered an IC50 under setting [1] below 50 nM and an IC50 under setting [2] below 10 nM.

With `O=C([C@H](O)c1cccc(-c2cccc(C(F)(F)F)c2)c1)N1CCCc2nc(C3(c4cc(C5CCCCC5)cs4)CC3)[nH]c(=O)c2C1` [54-9], the concentration for half-maximal inhibition (IC50) by setting is: under setting [1], below 50 nM; under setting [2], below 10 nM.

For `O=C([C@H](O)c1cccc(-c2cccc(Cl)c2)c1)N1CCCc2nc(C3(c4cc(C5CCCCC5)cs4)CC3)[nH]c(=O)c2C1` [54-10], the IC50 is, setting by setting: under setting [1], below 50 nM; under setting [2], below 10 nM.

`O=C([C@H](O)c1cccc(-c2cccc(OC(F)(F)F)c2)c1)N1CCCc2nc(C3(c4cc(C5CCCCC5)cs4)CC3)[nH]c(=O)c2C1` [54-11]: the IC50 runs as follows: under setting [1], below 50 nM; under setting [2], below 10 nM.

Consider `CC(C)(C)c1cccc(-c2cccc([C@@H](O)C(=O)N3CCCc4nc(C5(c6cc(-c7ccccc7)cs6)CC5)[nH]c(=O)c4C3)c2)c1` [54-12], for which the IC50 runs as follows: under setting [1], below 50 nM; under setting [2], below 10 nM.

With `O=C([C@H](O)c1cccc(-c2cccc(Cl)c2)c1)N1CCCc2nc(C3(c4cc(-c5ccccc5)cs4)CC3)[nH]c(=O)c2C1` [54-13], the IC50 was below 50 nM under setting [1] and below 10 nM under setting [2].

`O=C([C@H](O)c1cccc(-c2cccc(C(F)(F)F)c2)c1)N1CCCc2nc(C3(c4cc(-c5ccccc5)cs4)CC3)[nH]c(=O)c2C1` [54-14]: the IC50 under setting [1] was below 50 nM and the IC50 under setting [2] was below 10 nM.

Regarding `CC(C)c1cncc(C2(c3nc4c(c(=O)[nH]3)CN(C(=O)C(O)c3cccc(-c5cccc(C(C)(C)C)c5)c3)CCC4)CC2)c1` (centres unmarked) [55-1], the IC50 runs as follows: under setting [1], below 50 nM; under setting [2], below 10 nM.

With `CC(C)c1cncc(C2(c3nc4c(c(=O)[nH]3)CN(C(=O)C(O)c3cccc(-c5cccc(OC(F)(F)F)c5)c3)CCC4)CC2)c1` (centres unmarked) [55-2], the IC50 by setting is: under setting [1], below 50 nM; under setting [2], below 10 nM.

In turn, `CC(C)c1cncc(C2(c3nc4c(c(=O)[nH]3)CN(C(=O)C(O)c3cccc(-c5cccc(C(F)(F)F)c5)c3)CCC4)CC2)c1` (centres unmarked) [55-3] showed an IC50 under setting [1] below 50 nM and an IC50 under setting [2] below 10 nM.

On to `CC(C)c1cncc(C2(c3nc4c(c(=O)[nH]3)CN(C(=O)[C@H](O)c3cccc(-c5cccc(OC(F)(F)F)c5)c3)CCC4)CC2)c1` [55-4], for which the IC50 under setting [1] was below 50 nM and the IC50 under setting [2] is below 10 nM.

The compound `CC(C)c1cncc(C2(c3nc4c(c(=O)[nH]3)CN(C(=O)[C@H](O)c3cccc(-c5cccc(C(F)(F)F)c5)c3)CCC4)CC2)c1` [55-5] had an IC50 under setting [1] below 50 nM and an IC50 under setting [2] below 10 nM.

On to `CC(C)c1cncc(C2(c3nc4c(c(=O)[nH]3)CN(C(=O)[C@H](O)c3cccc(-c5cccc(C(C)(C)C)c5)c3)CCC4)CC2)c1` [55-6], for which the IC50 runs as follows: under setting [1], below 50 nM; under setting [2], below 10 nM.

For `CC(C)c1cncc(C2(c3nc4c(c(=O)[nH]3)CN(C(=O)[C@H](O)c3cccc(-c5cccc(F)c5)c3)CCC4)CC2)c1` [55-7], the IC50 reads like this: under setting [1], below 50 nM; under setting [2], below 3 nM.

`CC(C)c1cncc(C2(c3nc4c(c(=O)[nH]3)CN(C(=O)[C@H](O)c3cccc(-c5cccc(Cl)c5)c3)CCC4)CC2)c1` [55-8] gave an IC50 under setting [1] below 50 nM and a half-inhibitory concentration (IC50) under setting [2] below 3 nM.

`CC(C)c1cncc(C2(c3nc4c(c(=O)[nH]3)CN(C(=O)[C@H](O)c3cccc(-c5ccnc(C(F)(F)F)c5)c3)CCC4)CC2)c1` [55-9]: the 50% inhibitory concentration (IC50) reads like this: under setting [1], below 50 nM; under setting [2], below 10 nM.

For the compound `O=C([C@H](O)c1cccc(-c2cccc(OC(F)(F)F)c2)c1)N1CCCc2nc(C3(c4cncc(C5CCCCC5)c4)CC3)[nH]c(=O)c2C1` [55-10], the IC50 runs as follows: under setting [1], below 50 nM; under setting [2], below 10 nM.

As to `O=C([C@H](O)c1cccc(-c2cccc(F)c2)c1)N1CCCc2nc(C3(c4cncc(C5CCCCC5)c4)CC3)[nH]c(=O)c2C1` [55-11], the IC50 was below 50 nM under setting [1] and below 10 nM under setting [2].

In the case of `CC(C)(C)c1cccc(-c2cccc([C@@H](O)C(=O)N3CCCc4nc(C5(c6cncc(C7CCCCC7)c6)CC5)[nH]c(=O)c4C3)c2)c1` [55-12], the IC50 was below 50 nM under setting [1] and below 10 nM under setting [2].

Consider `O=C([C@H](O)c1cccc(-c2cccc(Cl)c2)c1)N1CCCc2nc(C3(c4cncc(C5CCCCC5)c4)CC3)[nH]c(=O)c2C1` [55-13], for which the IC50 under setting [1] is below 50 nM and the IC50 under setting [2] is below 10 nM.

For `O=C([C@H](O)c1cccc(-c2cccc(C(F)(F)F)c2)c1)N1CCCc2nc(C3(c4cncc(C5CCCCC5)c4)CC3)[nH]c(=O)c2C1` [55-14], the IC50 was below 50 nM under setting [1] and below 10 nM under setting [2].

As to `O=C(C(O)c1cccc(-c2cccc(OC(F)(F)F)c2)c1)N1CCCc2nc(C3(c4cncc(-c5ccccc5)c4)CC3)[nH]c(=O)c2C1` (centres unmarked) [56-1], the 50% inhibitory concentration (IC50) under setting [1] was below 50 nM and the half-inhibitory concentration (IC50) under setting [2] was below 3 nM.

On to `O=C(C(O)c1cccc(-c2cccc(C(F)(F)F)c2)c1)N1CCCc2nc(C3(c4cncc(-c5ccccc5)c4)CC3)[nH]c(=O)c2C1` (centres unmarked) [56-2], for which the IC50 reads like this: under setting [1], below 50 nM; under setting [2], below 3 nM.

Take `CC(C)(C)c1cccc(-c2cccc(C(O)C(=O)N3CCCc4nc(C5(c6cncc(-c7ccccc7)c6)CC5)[nH]c(=O)c4C3)c2)c1` (centres unmarked) [56-3]: the IC50 runs as follows: under setting [1], below 50 nM; under setting [2], below 3 nM.

With `CC(C)(C)c1cccc(-c2cccc([C@@H](O)C(=O)N3CCCc4nc(C5(c6cncc(-c7ccccc7)c6)CC5)[nH]c(=O)c4C3)c2)c1` [56-4], the IC50 is below 50 nM under setting [1] and below 10 nM under setting [2].
